Test results published in patent US20250352520A1, “USE OF DEXPRAMIPEXOLE FOR THE TREATMENT OF EOSINOPHILIC COPD” (Areteia Therapeutics, Inc., priority 2024, published 2025).

Settings: Week 12; >=50% AEC reduction at Week 16

Q: With `CCCN[C@@H]1CCc2nc(N)sc2C1` [Dexpramipexole, (6R)-2-amino-4,5,6,7-tetrahydro-6-(propylamino)benzothiazole] as the compound, how does the “Pre-BD FEF25-75 % change from baseline, Max” value read?
A: Its value is 14%.

Q: What about the “Pre-BD FEF25-75 % change from baseline, Mean ± SD” value of the same compound?
A: The value was 6.3 ± 8.24%.

Q: What about the “Pre-BD FEF25-75 % change from baseline, Median” value of the same compound?
A: The value was 6.8%.

Q: What about the “Pre-BD FEF25-75 % change from baseline, Min” value of the same compound?
A: Its value is −2%.

Q: And the “Pre-BD FEF25-75 % change from baseline, Q1” value?
A: The value was −2%.

Q: And the “Pre-BD FEF25-75 % change from baseline, Q3” value?
A: The value was 14%.

Q: What about the “Pre-BD FEF25-75 Observed, Max” value of the same compound?
A: The value was 900 mL/s.

Q: And the “Pre-BD FEF25-75 Observed, Mean ± SD” value?
A: The value was 640.0 ± 351.57 mL/s.

Q: And the “Pre-BD FEF25-75 Observed, Median” value?
A: The value was 780.0 mL/s.

Q: And the “Pre-BD FEF25-75 Observed, Min” value?
A: The value was 240 mL/s.

Q: And the “Pre-BD FEF25-75 Observed, Q1” value?
A: The value was 240 mL/s.

Q: What about the “Pre-BD FEF25-75 Observed, Q3” value of the same compound?
A: Its value is 900 mL/s.

Q: What about the “Pre-BD FEF25-75 change from baseline, Max” value of the same compound?
A: Its value is 50 mL/s.

Q: What about the “Pre-BD FEF25-75 change from baseline, Mean ± SD” value of the same compound?
A: The value was 20.0 ± 36.06 mL/s.

Q: And the “Pre-BD FEF25-75 change from baseline, Median” value?
A: Its value is 30.0 mL/s.

Q: And the “Pre-BD FEF25-75 change from baseline, Min” value?
A: Its value is -20 mL/s.

Q: And the “Pre-BD FEF25-75 change from baseline, Q1” value?
A: The value was -20 mL/s.

Q: What about the “Pre-BD FEF25-75 change from baseline, Q3” value of the same compound?
A: The value was 50 mL/s.

Q: And the “Pre-BD FEV1 % change from baseline, Max” value?
A: The value was 37%.

Q: What about the “Pre-BD FEV1 % change from baseline, Mean ± SD” value of the same compound?
A: Its value is 25.3 ± 19.37%.

Q: What about the “Pre-BD FEV1 % change from baseline, Median” value of the same compound?
A: Its value is 36. %.

Q: What about the “Pre-BD FEV1 % change from baseline, Min” value of the same compound?
A: The value was 3%.

Q: What about the “Pre-BD FEV1 % change from baseline, Q1” value of the same compound?
A: Its value is 3%.

Q: And the “Pre-BD FEV1 % change from baseline, Q3” value?
A: The value was 37%.

Q: What about the “Pre-BD FEV1 Observed, Max” value of the same compound?
A: Its value is 1780 mL.

Q: And the “Pre-BD FEV1 Observed, Mean ± SD” value?
A: Its value is 1496.7 ± 448.14 mL.

Q: And the “Pre-BD FEV1 Observed, Median” value?
A: Its value is 1730.0 mL.

Q: And the “Pre-BD FEV1 Observed, Min” value?
A: The value was 980 mL.

Q: What about the “Pre-BD FEV1 Observed, Q1” value of the same compound?
A: Its value is 980 mL.

Q: What about the “Pre-BD FEV1 Observed, Q3” value of the same compound?
A: The value was 1780 mL.

Q: And the “Pre-BD FEV1 change from baseline, Max” value?
A: Its value is 480 mL.

Q: What about the “Pre-BD FEV1 change from baseline, Mean ± SD” value of the same compound?
A: The value was 263.3 ± 215.02 mL.

Q: What about the “Pre-BD FEV1 change from baseline, Median” value of the same compound?
A: The value was 260.0 mL.

Q: What about the “Pre-BD FEV1 change from baseline, Min” value of the same compound?
A: Its value is 50 mL.

Q: What about the “Pre-BD FEV1 change from baseline, Q1” value of the same compound?
A: Its value is 50 mL.

Q: And the “Pre-BD FEV1 change from baseline, Q3” value?
A: Its value is 480 mL.

Q: What about the “Pre-BD FVC % change from baseline, Max” value of the same compound?
A: The value was 18%.

Q: What about the “Pre-BD FVC % change from baseline, Mean ± SD” value of the same compound?
A: The value was 12.0 ± 5.17%.

Q: What about the “Pre-BD FVC % change from baseline, Median” value of the same compound?
A: The value was 11.1%.

Q: And the “Pre-BD FVC % change from baseline, Min” value?
A: Its value is 7%.

Q: What about the “Pre-BD FVC % change from baseline, Q1” value of the same compound?
A: Its value is 7%.

Q: What about the “Pre-BD FVC % change from baseline, Q3” value of the same compound?
A: The value was 18%.

Q: What about the “Pre-BD FVC Observed, Max” value of the same compound?
A: The value was 2800 mL.

Q: What about the “Pre-BD FVC Observed, Mean ± SD” value of the same compound?
A: The value was 2690.0 ± 181.93 mL.

Q: And the “Pre-BD FVC Observed, Median” value?
A: Its value is 2790.0 mL.

Q: What about the “Pre-BD FVC Observed, Min” value of the same compound?
A: Its value is 2480 mL.

Q: What about the “Pre-BD FVC Observed, Q1” value of the same compound?
A: The value was 2480 mL.

Q: And the “Pre-BD FVC Observed, Q3” value?
A: The value was 2800 mL.

Q: And the “Pre-BD FVC change from baseline, Max” value?
A: The value was 370 mL.

Q: What about the “Pre-BD FVC change from baseline, Mean ± SD” value of the same compound?
A: The value was 280.0 ± 90.00 mL.

Q: And the “Pre-BD FVC change from baseline, Median” value?
A: Its value is 280.0 mL.

Q: And the “Pre-BD FVC change from baseline, Min” value?
A: The value was 190 mL.

Q: What about the “Pre-BD FVC change from baseline, Q1” value of the same compound?
A: The value was 190 mL.

Q: And the “Pre-BD FVC change from baseline, Q3” value?
A: The value was 370 mL.

Q: What about the “Pre-BD Peak Flow % change from baseline, Max” value of the same compound?
A: The value was 82%.

Q: What about the “Pre-BD Peak Flow % change from baseline, Mean ± SD” value of the same compound?
A: The value was 31.8 ± 45.54%.

Q: And the “Pre-BD Peak Flow % change from baseline, Median” value?
A: Its value is 21.9%.

Q: What about the “Pre-BD Peak Flow % change from baseline, Min” value of the same compound?
A: The value was −8%.

Q: What about the “Pre-BD Peak Flow % change from baseline, Q1” value of the same compound?
A: The value was −8%.

Q: And the “Pre-BD Peak Flow % change from baseline, Q3” value?
A: The value was 82%.

Q: And the “Pre-BD Peak Flow Observed, Max” value?
A: Its value is 285 L/min.

Q: What about the “Pre-BD Peak Flow Observed, Mean ± SD” value of the same compound?
A: The value was 208.7 ± 66.53 L/min.

Q: What about the “Pre-BD Peak Flow Observed, Median” value of the same compound?
A: Its value is 178.0 L/min.

Q: What about the “Pre-BD Peak Flow Observed, Min” value of the same compound?
A: The value was 163 L/min.

Q: What about the “Pre-BD Peak Flow Observed, Q1” value of the same compound?
A: The value was 163 L/min.

Q: And the “Pre-BD Peak Flow Observed, Q3” value?
A: Its value is 285 L/min.

Q: And the “Pre-BD Peak Flow change from baseline, Max” value?
A: Its value is 128 L/min.

Q: What about the “Pre-BD Peak Flow change from baseline, Mean ± SD” value of the same compound?
A: Its value is 48.7 ± 72.45 L/min.

Q: What about the “Pre-BD Peak Flow change from baseline, Median” value of the same compound?
A: The value was 32.0 L/min.

Q: What about the “Pre-BD Peak Flow change from baseline, Min” value of the same compound?
A: The value was -14 L/min.

Q: And the “Pre-BD Peak Flow change from baseline, Q1” value?
A: The value was -14 L/min.

Q: What about the “Pre-BD Peak Flow change from baseline, Q3” value of the same compound?
A: The value was 128 L/min.
